# Key:
# Rhodotrula sp. = test: Antifungal growth inhibition assay; type: cell-based; settings: positive control
# Method: (§4) The yeast strains Candida albicans (ATCC 10231) and Rhodotrula sp. and the Aurobasidium pollulans mold, were cultivated on potato dextrose agar with 2% glucose at room temperature. Fungal spores were dissolved in potato dextrose broth (Difco Laboratories, USA) and the cell concentration was determined and adjusted after counting in a Bürker chamber. […] The assay plates were incubated in a moist dark chamber at 37 °C. […] Growth inhibition was determined microscopically after 42 h incubation.
# Aurobasidium pollulans = test: Antifungal growth inhibition assay; type: cell-based; settings: positive control
# Method: as §4
# HT29 = test: Viability screening, colorimetric MTS assay; type: cell-based; set-up: key: Active: active compound was defined as ≤50% survival at one of the concentrations; Inactive; settings: HT29, colon cancer; screened at 10 and 50 µM; 72 h
# Method: (§1) All cell lines were purchased from ATCC (Manassa, VA, USA) except MOLM-13 that was purchased from Leibniz Institute DSMZ (Braunschweig, Germany). Viability screening of compounds 1–3 at 10 and 50µM was performed by a colorimetric MTS assay. The cells were seeded into 96-well microtiter plates (Nunclon^TM Delta Surface, Thermo Scientific, Roskilde, Denmark) in RPMI-1640 supplemented with 10% FBS and 10µg/mL Gentamycin (assay media). The adherent cell lines A2058, HaCat and HT29 were seeded in a density of 2000 cells/well, MRC5 were seeded in a density of 4000 cells/well and SK-BR-3 and MDA-MB-468 were seeded in a density of 5000 cells/well. After incubation for 24 h in 37 °C and 5% CO2 the media was discarded and replaced by samples diluted in assay media, negative control (100% cell survival, 100% assay media) and positive control (0% cell survival, 90% assay media supplemented with 10% DMSO). The suspension cell lines MV-4-11 and MOLT-4 were directly seeded in a density of 10,000 cells/well and MOLM-13 and THP-1 were seeded in a density of 20,000 cells/well in assay media supplemented with sample. All samples were added in triplicates. Cells and samples were incubated for a total of 72 h (HepG2 cells were incubated for 24 h) at 37 °C and 5% CO2. Thereafter, 10% CellTiter 96®AQueous One Solution Reagent (G3581, Promega) containing tetrazolium compound [3-(4,5-dimethylthiazol-2-yl)-5-(3-carboxymethoxyphenyl)-2-(4-sulfophenyl)-2H-tetrazolium] and phenazine ethosulfate were added. After 1 h incubation the absorbances was measured at 485 nm with a DTX 880 and viability was calculated.
# THP-1 = test: Viability screening, colorimetric MTS assay; type: cell-based; set-up: key: Active: active compound was defined as ≤50% survival at one of the concentrations; Inactive; settings: THP-1, acute monocytic leukemia; screened at 10 and 50 µM; 72 h
# Method: as §1
# MRC5 = test: Viability screening, colorimetric MTS assay; type: cell-based; set-up: key: Active: active compound was defined as ≤50% survival at one of the concentrations; Inactive; settings: MRC5, lung fibroblasts (non-cancerous); screened at 10 and 50 µM; 72 h
# Method: as §1
# SK-BR-3 = test: Viability screening, colorimetric MTS assay; type: cell-based; set-up: key: Active: active compound was defined as ≤50% survival at one of the concentrations; Inactive; settings: SK-BR-3, breast cancer; screened at 10 and 50 µM; 72 h
# Method: as §1
# HepG2 = test: Viability screening, colorimetric MTS assay; type: cell-based; set-up: key: Active: active compound was defined as ≤50% survival at one of the concentrations; Inactive; settings: HepG2, liver hepatocellular carcinoma; screened at 10 and 50 µM; 24 h
# Method: as §1
# HaCat = test: Viability screening, colorimetric MTS assay; type: cell-based; set-up: key: Active: active compound was defined as ≤50% survival at one of the concentrations; Inactive; settings: keratinocytes (non-cancerous), screened at 10 and 50 µM, 72 h
# Method: as §1
# MOLT-4 = test: Viability screening, colorimetric MTS assay; type: cell-based; set-up: key: Active: active compound was defined as ≤50% survival at one of the concentrations; Inactive; settings: MOLT-4, acute lymphoblastic leukemia; screened at 10 and 50 µM; 72 h
# Method: as §1
# MDA-MB-468 = test: Viability screening, colorimetric MTS assay; type: cell-based; set-up: key: Active: active compound was defined as ≤50% survival at one of the concentrations; Inactive; settings: MDA-MB-468, breast cancer; screened at 10 and 50 µM; 72 h
# Method: as §1
# FLT3-ITD mutant = FLT3-ITD mutant (Homo sapiens, UniProt P36888); type: binding; settings: concentrations tested up to 10 μM
# Method: (§2) A FRET signal is generated between an Europium-labelled tag, on the FLT3 kinase, and a fluorescent tracer with high binding affinity for the FLT3 active site.
# (§3) Anti-GST-Eu-tagged monoclonal antibodies (anti-GST AB) were purchase from Cisbio (PerkinElmer Norge AS, catalogue number 61GSTKLA) and reconstituted in water at a final concentration of 333 nM. White, non-binding, round bottom 384 well microplates (reference number 4513) were purchased from Corning (Corning Inc, Kennebunk, ME, USA). The compounds were serially diluted into DMSO to 12 different concentrations. Each of these compound-containing DMSO solutions was further diluted 33 times in assay buffer A (50 mM HEPES pH 7.5, 10 mM MgCl2, 1 mM ethylene glycol-bis(β-aminoethyl ether)-N,N,N′,N′-tetraacetic acid (EGTA) and 0.01% BRIJ-35) and 5 μL of these solutions were dispensed in triplicates in 384 well plate. […] Fluorescence measurements were made using a EnVision 2104 Multilabel reader, (PerkinElmer, US), excitation wavelength was set to 340 nm and emission was read at both 615 nm (8.5 nm bandwidth) and 665 nm (7.5 nm bandwidth) over […] between excitation and emission measurements.
# MOLM-13 = test: Viability screening, colorimetric MTS assay; type: cell-based, human; set-up: key: Active: active compound was defined as ≤50% survival at one of the concentrations; Inactive; settings: MOLM-13, acute myeloid leukemia; screened at 10 and 50 µM; 72 h
# Method: as §1
# A2058 = test: Viability screening, human melanoma cell line; type: cell-based; set-up: key: Active: active compound was defined as ≤50% survival at one of the concentrations; Inactive; settings: screened at 10 and 50 µM, 72 h
# Method: The flash fractions of P. militaris were assayed for activity against the human melanoma cancer cell line A2058 at 50 µg/mL. […] The flash fractions were also assayed against the human pathogenic bacterial strains Staphylococcus aureus, Enterococcus faecalis, Escherichia coli, Pseudomonas aeruginosa and Streptococcus agalactiae (Gr. B).
# as §1
# MV-4-11 cells [1] = test: Apoptosis assay (annexin V/PI staining, flow cytometry); type: cell-based, human; settings: 26 µM (1 × IC50); 24 h
# Method: To further investigate the cell death pathway activated by 1, an apoptosis assay was performed and the ability of 1 to induce apoptosis and/or necrosis in MV-4-11 cell line was evaluated by annexin V/PI staining (Figure 5). The cells were divided into 3 different populations: annexin V−/PI− (healthy cells), annexin V+/PI− (apoptotic cells) and annexin V+/PI+ (late apoptotic/necrotic cells). […] However, after 24 h and 48 h of incubation at the highest concentration of compound (104 µM), no increase in apoptotic cells were seen when compared to cells incubated with 52 µM.
# MV-4-11 cells were seeded into 24-well plates (Nunclon^TM Delta Surface, Thermo Scientific) at a density of 1 × 10^6 cells/mL supplemented with 26 µM, 52 µM or 104 µM of 1 and incubated for 24 or 48 h at 37 °C an 5% CO2. Apoptotic and necrotic cells were labelled according to manufacturer’s instructions (Alexa Fluor^TM 488 Annexin V/Dead Cell Apoptosis Kit, Invitrogen) and analysed by a CytoFLEX Flow cytometer and CytExpert software (Beckman Coulter).
# MV-4-11 cells [2] = test: Cell cycle analysis (PI staining, flow cytometry); type: cell-based, human; settings: 24 h, compared to control
# Method: MV-4-11 cells were seeded into 24-well plates (Nunclon^TM Delta Surface, Thermo Scientific) in a density of 1 × 10^6 cells/mL supplemented with 26 µM, 52 µM or 104 µM of 1. The cells were incubated for 24 h and thereafter fixed in ice cold 70% EtOH. After washing the cells were stained with FxCycle™ PI/RNase Staining Solution (Invitrogen, MA, USA) according to manufacturer’s instructions. The cells were analysed by a CytoFLEX Flow cytometer (Beckman Coulter, CA, USA) and cell cycle phase determined in CytExpert software (Beckman Coulter).
# FLT3 WT = molecular target: T1, FLT3 WT (Homo sapiens, UniProt P36888); test: Kinase binding assay (FRET tracer competition); settings: concentrations tested up to 10 μM
# T1 construct: purchased ThermoFisher Scientific PV3182
# T1 sequence (P36888 564-993 limits assumed): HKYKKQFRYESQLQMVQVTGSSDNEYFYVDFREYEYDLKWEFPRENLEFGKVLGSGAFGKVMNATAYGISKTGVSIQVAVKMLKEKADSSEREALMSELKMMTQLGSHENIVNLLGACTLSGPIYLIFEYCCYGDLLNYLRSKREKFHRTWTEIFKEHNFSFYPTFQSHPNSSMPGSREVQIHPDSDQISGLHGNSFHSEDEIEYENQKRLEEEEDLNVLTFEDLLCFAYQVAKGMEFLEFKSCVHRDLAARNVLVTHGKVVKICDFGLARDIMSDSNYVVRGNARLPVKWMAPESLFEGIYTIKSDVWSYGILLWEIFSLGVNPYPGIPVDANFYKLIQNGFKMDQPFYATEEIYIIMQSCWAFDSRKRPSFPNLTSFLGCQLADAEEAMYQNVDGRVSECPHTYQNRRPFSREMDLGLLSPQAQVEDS
# Method: as §2, §3
# MV-4-11 = test: Viability screening and IC50 determination, MTS assay; type: cell-based, human; set-up: key to Activity at ≤50 µM: Active: active compound was defined as ≤50% survival at one of the concentrations; Inactive; settings: for Activity at ≤50 µM: MV-4-11, acute myeloid leukemia, screened at 10 and 50 µM, 72 h
# Method: as §1
Structure (SMILES),Activity at ≤50 µM (HT29),Activity at ≤50 µM (THP-1),Activity at ≤50 µM (MRC5),Activity at ≤50 µM (SK-BR-3),Activity at ≤50 µM (HepG2),Activity at ≤50 µM (HaCat),Activity at ≤50 µM (MOLT-4),Activity at ≤50 µM (MDA-MB-468),Activity at ≤50 µM (MOLM-13),Activity at ≤50 µM (A2058),Activity at ≤50 µM (MV-4-11),further results
C[C@@H]1[C@H](O)[C@@H](C)/C=C/C=C/C=C/C=C/C=C/C=C/C=C/[C@H](O[C@@H]2O[C@H](C)[C@@H](O)[C@H](N)[C@@H]2O)C[C@@H]2O[C@](O)(C[C@@H](O)C[C@@H](O)[C@H](O)CC[C@@H](O)C[C@@H](O)CC(=O)O[C@H]1C)C[C@H](O)[C@H]2C(=O)O [amphotericin-B],–,–,–,–,–,–,–,–,–,–,–,MIC (Rhodotrula sp.): 8.7 µM; MIC (Aurobasidium pollulans): 8.7 µM
"COC(=O)[C@@H](CCOc1c(Br)cc(Br)cc1Br)[N+](C)(C)C [compound 1, purpuroine K]",I,I,I ^2,I,I,I,I,I,Active,I,Active,"binding to FLT-ITD mutant active site (FLT3-ITD mutant): does not bind; increase in percentage of apoptotic cells compared to control (MV-4-11 cells [1]): 94%; decrease of cells entering G2/M-phase (MV-4-11 cells [2]; 52 µM): 26%; decrease of cells entering the S-phase (MV-4-11 cells [2]; 52 µM): 23%; increase in the number of cells arrested in G0/G1 phase (MV-4-11 cells [2]; 52 µM): 11%; decrease of cells entering G2/M-phase (MV-4-11 cells [2]; 104 µM): 55%; decrease of cells entering the S-phase (MV-4-11 cells [2]; 104 µM): 38%; increase in the number of cells arrested in G0/G1 phase (MV-4-11 cells [2]; 104 µM): 19%; binding to FLT3 WT active site (FLT3 WT): does not bind; IC50 (MV-4-11; Homo sapiens, MV4-11, MV-4-11 cell line, read-out: IC50 against MV-4-11): 26 ± 1.2 µM"
"COC(=O)[C@@H](CCOc1c(Cl)cc(Br)cc1Br)[N+](C)(C)C [compound 2, purpuroine L]",I,I,I,I,I,I,I,I,I,I,I,–
"COC(=O)[C@@H](CCOc1c(Cl)cc(Br)cc1Cl)[N+](C)(C)C [compound 3, purpuroine M]",I,I,I,I,I,I,I,I,I,I,I,–

# From publication PMC9779817, “Identification of New Purpuroine Analogues from the Arctic Echinodermata Pteraster militaris That Inhibit FLT3-ITD^+ AML Cell Lines” (International Journal of Molecular Sciences, 2022)
